Legend:
[1] = test system: Ventricular contractility in the anesthetized dog; test: Ventricular contractility in the anesthetized dog (i.v.); format: in vivo; settings: Canis lupus familiaris, iv, i.v. bolus, by interpolation, read-out: ED50 (dose required to produce a peak increase in contractility of 50%)
From the text: (§1) The compounds of Formula I are particularly useful as inotropic agents due to their potency, long action of effect, and oral efficacy and are therefore useful in the treatment and prevention of heart failure. For example, the compounds of this invention were examined as to their pharmacodynamic effects on the following test systems. For comparison, 1,3-dihydro-5-(1,4,5,6-tetrahydro-6-oxo-3-pyridazinyl)-2H-indol-2-one (Compound A) and 4,4-dimethyl-1,2,3,4-tetrahydro-6-(1,4,5,6-tetrahydro-6-oxo-3-pyridazinyl)quinolin-2-one (Compound B) as taught in U.S. Pat. No. 4,258,185 (although named somewhat differently), were also tested.
Mongrel dogs of either sex ranging in weight for 7 to 14 kg were used. Anesthesia was induced with sodium pentobarbital (30 mg/kg, i.v.) and maintained with supplemental doses as required. A positive-pressure pump was used to ventilate the dogs through an endotracheal tube (18 strokes/minute, 20 ml/kg stroke^-1), and a heating pad kept the body temperature at 37°-38° C.
Femoral arterial blood pressure was measured through a polyethylene catheter filled with heparin solution (16 units/ml) and connected to a Statham pressure transducer. A strain-gauge arch sutured to the right ventricle of the heart measured cardiac contractility. Tension on the gauge was adjusted to 50 g and the gain of the recorder (Beckman dynograph) was set so that 50 g caused a 10-mm pen deflection. Cardiac contractile tension was measured as millimeters of pen deflection or grams of tension. The test compounds were administered as an i.v. bolus (2-5 ml) in a normal saline vehicle following a 30-45 minute equilibrium period. […] The maximum effects on contractility at various dose levels were determined and plotted and the dose required to produce a 50 % increase in contractility (ED50) was determined by interpolation.

[2] = test system: Ventricular contractility in the conscious dog; test: Ventricular contractility in the conscious dog (oral); format: in vivo; settings: Canis lupus familiaris, oral (gelatin capsules), by interpolation, read-out: ED50 (dose required to produce a peak increase in contractility of 50%)
From the text: as §1
Mongrel dogs of either sex weighing 15-36 kg were chronically instrumented to monitor peak systolic pressure, heart rate, left ventricular pressure and its first derivative, LVdP/dt at 60 mm of mercury. Under halothane-nitrous oxide anesthesia, a precalibrated Konigsberg P22 Pressure Transducer was implanted into the left ventricle through a stab wound at the apex. Following recovery from surgery, a minimum of two weeks was allowed to train the dogs to lie quietly for four-hour periods. This conditioning was necessary to obtain stable, reproducible results from day to day. Dogs were fasted eighteen hours before an experiment. Gross behavioral observations of animals were made throughout each study. Compounds or placebo (lactose) were administered in gelatin capsules. The maximum effects on contractility at various dose levels were determined and plotted and the dose required to produce a 50-percent increase in contractility (ED50) was determined by interpolation.

Cat papillary muscles = test: Positive inotropic activity in isolated cat papillary muscles; format: cell-based; settings: Felis catus, control = 100 percent, average of 2 to 8 muscles, read-out: Contractility of papillary muscle, peak response; for activity at 100 µM: 10^-4 M; for activity at 10 µM: 10^-5 M
From the text: as §1
Cats of either sex were anesthetized with Metofane (1,1-difluoro-2,2-dichloroethyl methyl ether, Pittman-Moore). Their hearts were immediately removed and the papillary muscles dissected and suspended in individual organ baths. A platinum hook secured one end of the muscle to an electrode mounted in the bottom of the bath, and a silk thread attached the tendon to a Statham isometric transducer. The baths contained Krebs-Henseleit solution (36° C., bubbled with 95 percent oxygen--5 percent carbon dioxide) of the following millimolar composition: NaCl, 118; KCl, 4.5; CaCl2, 2.5; KH2 PO4, 1.1; MgSO4, 1.2; NaHCO3, 25; and glucose, 11.
A base-line tension of 1.5 g was applied to each muscle. Square-wave pulses (5.0 msec. in duration, three times threshold voltage) delivered through the hook electrode and a second electrode positioned near the top of the muscle evoked 12 contractions/minute, which were recorded on a Grass polygraph. After the muscles had equilibrated for 60 minutes, the recorder gain was adjusted so that the pen deflected 10 mm. The test compound was introduced in a solution of normal saline in an amount to bring the final concentration of the compound to 10^-5 or 10^-4 molar. Increases in contractility were tabulated as millimeters of pen deflection in excess of the baseline value. In each experiment the maximum contractility was measured. Test results are summarized in Table I and are expressed as percent of control (control=100 percent). Values are the average of results from 2 to 8 muscles.

| Structure (SMILES) | ED50 [1] | ED50 [2] | activity at 100 µM (Cat papillary muscles) | activity at 10 µM (Cat papillary muscles) |
| --- | --- | --- | --- | --- |
| O=C1CCC(c2ccc3c(c2)CC(=O)N3)=NN1 [Compound A, 1,3-dihydro-5-(1,4,5,6-tetrahydro-6-oxo-3-pyridazinyl)-2H-indol-2-one, reference compound] | 10 µg/kg | 0.5 mg/kg | 152% | 147% |
| CC1(C)CC(=O)Nc2ccc(C3=NNC(=O)CC3)cc21 [Compound B, 4,4-dimethyl-1,2,3,4-tetrahydro-6-(1,4,5,6-tetrahydro-6-oxo-3-pyridazinyl)quinolin-2-one, reference compound] | 48 µg/kg | > 0.5 mg/kg | 169% | 178% |
| CC1(C)C(=O)Nc2ccc(C3=NNC(=O)CC3)cc21 [Example 1, 1,3-Dihydro-3,3-dimethyl-5-(1,4,5,6-tetrahydro-6-oxo-3-pyridazinyl)-2H-indol-2-one] | 5 µg/kg | 0.025 mg/kg | 208% | 202% |
| CN1C(=O)C(C)(C)c2cc(C3=NNC(=O)CC3)ccc21 [Example 2, 1,3-Dihydro-1,3,3-trimethyl-5-(1,4,5,6-tetrahydro-6-oxo-3-pyridazinyl)-2H-indol-2-one] | 10 µg/kg | > 0.4 mg/kg | – | – |
| CC1CC(=O)NN=C1c1ccc2c(c1)C(C)(C)C(=O)N2C (stereo not shown) [Example 3, 1,3-Dihydro-1,3,3-trimethyl-5-(1,4,5,6-tetrahydro-4-methyl-6-oxo-3-pyridazinyl)-2H-indol-2-one] | 5 µg/kg | – | – | – |
| Cc1cc(C2=NNC(=O)CC2)cc2c1NC(=O)C2(C)C [Example 4, 1,3-Dihydro-3,3,7-trimethyl-5-(1,4,5,6-tetrahydro-6-oxo-3-pyridazinyl)-2H-indol-2-one] | 8.5 µg/kg | – | – | – |
| Cc1cc2c(cc1C1=NNC(=O)CC1)C(C)(C)C(=O)N2 [Example 5, 1,3-Dihydro-3,3,6-trimethyl-5-(1,4,5,6-tetrahydro-6-oxo-3-pyridazinyl)-2H-indol-2-one] | 20 µg/kg | – | – | – |
| CC1CC(c2ccc3c(c2)C(C)(C)C(=O)N3)=NNC1=O (stereo not shown) [Example 6, 1,3-Dihydro-3,3-dimethyl-5-(1,4,5,6-tetrahydro-5-methyl-6-oxo-3-pyridazinyl)-2H-indol-2-one] | 21 µg/kg | – | – | – |
| CC1CC(=O)NN=C1c1ccc2c(c1)C(C)(C)C(=O)N2 (stereo not shown) [Example 7, 1,3-Dihydro-3,3-dimethyl-5-(1,4,5,6-tetrahydro-4-methyl-6-oxo-3-pyridazinyl)-2H-indol-2-one] | 2.5 µg/kg | 0.05 mg/kg | – | – |
| CC1C(=O)Nc2ccc(C3=NNC(=O)CC3)cc21 (stereo not shown) [Example 8, 1,3-Dihydro-3-methyl-5-(1,4,5,6-tetrahydro-6-oxo-3-pyridazinyl)-2H-indol-2-one] | 6.3 µg/kg | 0.025 mg/kg | – | – |

From patent US4647564A, “Inotropic agents” (Eli Lilly and Company, priority 1986, dated 1987)
